One may read the IC50 as the midpoint of a concentration-inhibition curve. Usually EC50 stands for the concentration giving half of the maximal effect. Low values mean greater potency, high ones weaker potency.

Experiment [1] relates to IFNα-stimulated Kit225 T cells with STAT-dependent luciferase reporter. In words: Kit225 T cell assay, STAT-dependent luciferase reporter, IFNα stimulated. Type of experiment: cell-based, human. The following applies: Homo sapiens, KIT225, 200 U/mL human recombinant IFNα, 5-6 hours, read-out: IFNa Kit225 Reporter, LE (IC50). The procedure, abridged: (§1)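 Kit225 T cells carrying a stably integrated STAT-dependent luciferase reporter, in RPMI with 10% heat-inactivated FBS, stimulated with 20 ng/mL human recombinant IL-23 or 200 U/mL human recombinant IFNα for 5-6 h. Luciferase expression read by Steady-Glo luminescence.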
For orientation: Reporter assays use an easily measured gene product as a stand-in for the process of interest.

Experiment [2] has as its target T1, His-tagged protein corresponding to amino acids 575-869 of human Tyk2 (Homo sapiens, UniProt P29597).
T1 construct: made in house
Kind of experiment: Probe displacement assay (scintillation proximity, radiolabeled probe). Type of experiment: binding. The following applies: 2.5 nM Tyk2 (575-869), 40 nM [3H] probe, 30 minutes at room temperature. Here is the method:
The preparation of radiolabeled probe, (R)—N-(1-(3-(8-methyl-5-(methylamino)-8H-imidazo[4,5-d]thiazolo[5,4-b]pyridin-2-yl)phenyl)ethyl)-2-([^3H]methylsulfonyl)benzamide, was performed as described below: […]
For orientation: In a scintillation proximity assay essentially only radioactivity close to the scintillant gives light.

In experiment [3] the test system is IL-23-stimulated Kit225 T cells with STAT-dependent luciferase reporter. In words: Kit225 T cell assay, STAT-dependent luciferase reporter, IL-23 stimulated. The following applies: Homo sapiens, KIT225, 20 ng/mL human recombinant IL-23, 5-6 hours, read-out: IL-23 Kit225 Reporter, LE (IC50). It is filed as cell-based, human. The procedure, abridged:
as §1

T1 sequence (P29597 with tags, fused parts or gaps): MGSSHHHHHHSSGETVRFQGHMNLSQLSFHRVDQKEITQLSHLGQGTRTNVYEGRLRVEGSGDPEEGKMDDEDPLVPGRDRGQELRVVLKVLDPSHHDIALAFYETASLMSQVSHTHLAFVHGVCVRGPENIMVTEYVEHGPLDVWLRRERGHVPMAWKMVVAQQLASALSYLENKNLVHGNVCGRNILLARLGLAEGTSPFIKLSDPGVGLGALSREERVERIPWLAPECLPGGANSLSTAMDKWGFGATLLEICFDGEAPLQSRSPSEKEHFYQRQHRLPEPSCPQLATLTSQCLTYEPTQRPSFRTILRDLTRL

`CNc1cc(Nc2cccn(-c3ccccc3)c2=O)nn2c(C(=O)N[C@H]3CCCC[C@H]3O)cnc12` [Example 188]: the figures for the IC50 in experiment [1] and in experiment [3] were 230 nM and 70 nM, respectively. Besides, the half-maximal effective concentration (EC50) in experiment [2] is 21 nM.

With `CC[C@@H](C)NC(=O)c1cnc2c(NC)cc(Nc3cccn(-c4ccccn4)c3=O)nn12` [Example 74], the IC50 was found to be 110 nM in experiment [1] and 170 nM in experiment [3]. The molecule further had an EC50 in experiment [2] of 9 nM.

`CNc1cc(Nc2cccn(C)c2=O)nn2c(C(=O)NC(C)(C)C)cnc12` [Example 211]: the figures for the half-inhibitory concentration (IC50) in experiment [1] and in experiment [3] were 490 nM and 360 nM, respectively. Further, in experiment [2], the midpoint of the response, the EC50, lay at 57 nM.

As for `CNc1cc(Nc2cccn(-c3cccc(F)n3)c2=O)nn2c(C(=O)N[C@@H]3CCOC3)cnc12` [Example 61], the IC50 in experiment [1] was 180 nM; in experiment [3] it was 210 nM. Further, the EC50 in experiment [2] was determined as 20 nM.

On to `CNc1cc(Nc2cccn(-c3ncc(C)cn3)c2=O)nn2c(C(=O)N[C@@H]3C[C@@H]3F)cnc12` [Example 83], for which the IC50 in experiment [1] came to 120 nM; in experiment [3] it was 200 nM. The molecule further displayed an EC50 in experiment [2] of 2 nM.

In the case of `CNc1cc(Nc2cccn(C3CCN(C(=O)c4ncc[nH]4)CC3)c2=O)nn2c(C(=O)NC3CC3)cnc12` [Example 245], the values for the IC50 in experiment [1] and in experiment [3] were 260 nM and 290 nM, respectively. In experiment [2], this molecule returned a concentration for a half-maximal effect (EC50) of 7 nM.

On to `CNc1cc(Nc2cccn(-c3cccc(C(C)O)n3)c2=O)nn2c(C(=O)NC3CCC3)cnc12` (stereo not drawn) [Example 86], for which the IC50 in experiment [1] and in experiment [3] was 30 nM each time. In experiment [2], this molecule had an EC50 of 6 nM.

Turning to `CNc1cc(Nc2cc(F)cn(CCOC)c2=O)nn2c(C(=O)NC3CC3)cnc12` [Example 118], the IC50 in experiment [1] came to 150 nM; in experiment [3], 270 nM. Also, in experiment [2], the response was half-maximal at 18 nM (EC50).

On to `CNc1cc(Nc2cccn(-c3ccccn3)c2=O)nn2c(C(=O)NCc3nccs3)cnc12` [Example 190], for which the IC50 in experiment [1] came out at 290 nM; in experiment [3], 260 nM. This molecule also registered an EC50 in experiment [2] of 23 nM.

`CNc1cc(Nc2cccn(-c3ccc(C(F)F)cc3)c2=O)nn2c(C(=O)NCC(C)(C)CO)cnc12` [Example 124]: the IC50 in experiment [1] is 80 nM; in experiment [3] it was 150 nM. The EC50 in experiment [2] amounted to 4 nM.

With `CNc1cc(Nc2cccn(-c3ccccn3)c2=O)nn2c(C(=O)NCCF)cnc12` [Example 101], the IC50 in experiment [1] is 170 nM; in experiment [3] it was 140 nM. The response in experiment [2] was half-maximal at 12 nM (EC50).

Turning to `CNc1cc(Nc2cccn(-c3cccc(C(C)O)n3)c2=O)nn2c(C(=O)NC3CC3)cnc12` (stereo not drawn) [Example 85], the IC50 came to 110 nM in experiment [1] and 340 nM in experiment [3]. In experiment [2], the EC50 came out at 5 nM.

On to `CNc1cc(Nc2cccn(-c3ccc(C(F)(F)F)cc3)c2=O)nn2c(C(=O)NCC3(CO)CC3)cnc12` [Example 133], for which the IC50 is 200 nM in experiment [1] and 430 nM in experiment [3]. The molecule further came in with an EC50 in experiment [2] of 19 nM.

With `CNc1cc(Nc2cccn(-c3ccc(C)nn3)c2=O)nn2c(C(=O)NC3CC3)cnc12` [Example 63], the IC50 stood at 110 nM in experiment [1] and 140 nM in experiment [3]. This molecule returned an EC50 in experiment [2] of 7 nM.

In the case of `CNc1cc(Nc2cccn(C3(C)CC3)c2=O)nn2c(C(=O)NCC(C)(C)CO)cnc12` [Example 163], the IC50 in experiment [1] stood at 70 nM; in experiment [3] it was 240 nM. Besides, a half-maximal effect in experiment [2] (EC50) was put at 8 nM.

Turning to `CNc1cc(Nc2cccn(-c3ccc(C(F)(F)F)cc3)c2=O)nn2c(C(=O)NCC(C)(CO)CO)cnc12` [Example 132], the IC50 in experiment [1] amounted to 320 nM; in experiment [3] it was 400 nM. Further, the half-maximal effective concentration (EC50) in experiment [2] turned out to be 14 nM.

For the molecule `CCC(CC)CNC(=O)c1cnc2c(NC)cc(Nc3cccn(-c4ccccc4)c3=O)nn12` [Example 187], the IC50 worked out at 380 nM in experiment [1] and 220 nM in experiment [3]. Also, a half-maximal response in experiment [2] (EC50) required 29 nM.

In the case of `CNc1cc(Nc2cccn(-c3ccc(S(C)(=O)=O)cc3)c2=O)nn2c(C(=O)NC3CC3)cnc12` [Example 202], the IC50 in experiment [1] was 330 nM; in experiment [3], 350 nM. This molecule yielded an EC50 in experiment [2] of 8 nM.
